From patent publication US20230303635A1, “DIAGNOSTIC METHODS AND COMPOSITIONS” (THE REGENTS OF THE UNIVERSITY OF CALIFORNIA, priority 2020, published 2023)
Where two headings read alike, the source gives them in different places.

Assays:
[1] = target: receptor binding domain (RBD) of the SARS-CoV-2 spike protein (Severe acute respiratory syndrome coronavirus 2, UniProt P0DTC2); conditions: cited from earlier work
[2] = Fluorescence spectroscopy of gpW FRET constructs upon pH titration
Procedure: Accordingly, the fluorescence integration was employed on this variant. Specifically, an extra cysteine was added at the N-terminal (N-ter), e.g., position 1, and the second cysteine was introduced near the C-terminal (C-ter) by replacing the methionine at position 56. These mutations allow us to chemically label the L7H with a FRET-pair to monitor the end-to-end distance of L7H (L7H-FRET). Another FRET-construct was also designed to measure the distance change between the beta-hairpin and the helix-1. […] In this regard, two cysteines were placed on the M18H-F35H variant by adding one cysteine at the N-ter (position 1) and replacing an aspartate (position 29) with cysteine. […] In both constructs, Alexa-488 maleimide and Alexa-594 maleimide are used as the FRET pair as they have many advantageous features. […]
Proteins samples were prepared at different pH by adding the labeled proteins 20 mM citrate buffer for experiments in the 3-6 pH range, phosphate buffer pH 7, and Tris-HCl buffer for the 8-9 pH range. […] Fluorescence emission spectra were recorded between 630 nm and 740 nm by exciting the ATTO 655 at 620 nm or between 490 nm and 720 nm by exciting the Alexa 488 at 480 nm. The pH titration on L7H-helix was triplicated, and L7H-Cter was replicated five times to calculate the standard deviation due to the concentration dependence of the PET fluorescence technique.

Molecule | Kd ([1]; read-out: binding affinity (KD) to SARS-CoV-2 S protein) [nM] | Kd ([1]; read-out: binding affinity (Kd) to SARS-CoV-2 spike protein RBD) [nM] | distance change as a function of pH [2]
GSGSGSTIEEQAKTFLDKANCEAEDLAYQSSLAS [ACE-2 α-helix] | 1000 | 50 | –
L7H: single histidine graft L7H on downhill folding protein gpW (protein, UniProt P68660 1-68, looked up, variant L7H) Head completion protein: MTRQEEHAAARAALHDLMTGKRVATVQKDGRRVEFTATSVSDLKKYIAELEVQTGMTQRRRGPAGFYV | – | – | less than 1 nm
